Results: patent US12030905B2, “Steviol glycoside compounds, compositions for oral ingestion or use, and method for enhancing steviol glycoside solubility” (Cargill, Incorporated, priority 2014, dated 2024)

What was measured:
[1] = Instantaneous solubility in deionized water at room temperature; type: physicochemical; conditions: for instantaneous solubility: vigorously mixed with deionized water for 10 minutes at room temperature, clear solution without precipitates
From the text: (§1) The composition can optionally be expressed in terms of the concentration of one or more steviol glycoside(s). Beneficially, it has been founds that compound(s) 1, 2, 3, and/or 4, can improve solubility of steviol glycosides in an aqueous solution, and therefore compositions can be prepared having a greater concentration of steviol glycosides in solution. As used herein “instantaneous solubility” refers to the solubility of a steviol glycoside, or mixture of steviol glycosides, that are vigorously mixed with deionized water at room temperature (25° C.). As used herein “equilibrium solubility” refers to the solubility of a steviol glycoside, or mixture of steviol glycosides, that are vigorously mixed with deionized water at 80° C. for 15 minutes, cooled to room temperature (25° C.), and then observed up to 4 days. Clear solutions without precipitates are considered soluble. Unless indicated otherwise herein, the term “solubility” refers to “equilibrium solubility.”
(§2) Instantaneous solubility is determined by mixing steviol glycoisde with deionized water vigorously for 10 minutes at room temperature. Equilibrium solubility is determined by heating deionized water with steviol glycoside at 80° C. for 15 minutes and cooling down to room temperature for observation up to 4 days. Clear solutions without precipitates are considered soluble.

[2] = Equilibrium solubility (heated at 80° C. for 15 minutes, cooled to room temperature, observed up to 4 days); type: physicochemical; conditions: for equilibrium solubility: deionized water, 80° C. for 15 minutes, cooled to room temperature, observed up to 4 days
From the text: as §1, §2

[3] = taste, versus sucrose/sugar; cited from earlier work

Row | instantaneous solubility [1] | instantaneous solubility ([1]; listed as rebaudioside D) | equilibrium solubility at 0.08% ([2]; RebD 0.08% in deionized water) | equilibrium solubility [2] [%] | instantaneous solubility at 0.10% ([1]; RebM 0.10% in deionized water) | instantaneous solubility at 0.13% ([1]; RebM 0.13% in deionized water) | instantaneous solubility ([1]; listed as rebaudioside M) | equilibrium solubility at 0.10% ([2]; RebM 0.10% in deionized water) | equilibrium solubility at 0.13% ([2]; RebM 0.13% in deionized water) | equilibrium solubility at 0.20% ([2]; RebM 0.20% in deionized water) | equilibrium solubility ([2]; listed as rebM) | equilibrium solubility ([2]; listed as rebaudioside M) | SMILES | times sweeter than sucrose [3]
1 | < 0.08% | less than 0.08% | soluble | 0.08 | – | – | – | – | – | – | – | – | C=C1C[C@@]23CC[C@H]4[C@@](C)(CCC[C@@]4(C)C(=O)O[C@@H]4O[C@H](CO)[C@@H](O)[C@H](O)[C@H]4O[C@@H]4O[C@H](CO)[C@@H](O)[C@H](O)[C@H]4O)[C@@H]2CC[C@]1(O[C@@H]1O[C@H](CO)[C@@H](O)[C@H](O[C@@H]2O[C@H](CO)[C@@H](O)[C@H](O)[C@H]2O)[C@H]1O[C@@H]1O[C@H](CO)[C@@H](O)[C@H](O)[C@H]1O)C3 [RebD, rebaudioside D] | 200-220 times
2 | at least 0.13% | – | – | – | soluble | soluble | about 0.13% | soluble | soluble | soluble | at least 0.2% | about 0.2% | C=C1C[C@@]23CC[C@H]4[C@@](C)(CCC[C@@]4(C)C(=O)O[C@@H]4O[C@H](CO)[C@@H](O)[C@H](O[C@@H]5O[C@H](CO)[C@@H](O)[C@H](O)[C@H]5O)[C@H]4O[C@@H]4O[C@H](CO)[C@@H](O)[C@H](O)[C@H]4O)[C@@H]2CC[C@]1(O[C@@H]1O[C@H](CO)[C@@H](O)[C@H](O[C@@H]2O[C@H](CO)[C@@H](O)[C@H](O)[C@H]2O)[C@H]1O[C@@H]1O[C@H](CO)[C@@H](O)[C@H](O)[C@H]1O)C3 [RebM, rebaudioside M] | –
